According to patent US20050096370A1, “Method for inhibiting tumor angiogenesis and tumor growth” (Bizbiotech Co., Ltd., priority 2003, published 2005):

Tests used:
Format in all cases: in vivo, nude mice
HIF-1α and VEGF = HIF-1α and VEGF protein immunoblot of Hep3B xenograft tumor lysates; settings: Hep3B xenografts, 30 μg/g daily i.p. 2 weeks
Experimental: Male nude mice were injected subcutaneously in the flank with 5×10^6 viable Hep3B cells. […] After the last treatment, the mice were euthanized, the tumors removed and lysates prepared for immunoblotting.
Male nude mice were injected subcutaneously in the flank with 5×10^6 viable Hep3B cells. […] After the last treatment, the mice were euthanized, the tumors removed and lysates prepared for immunoblotting. Tumor lysates from vehicle-treated mice (C) and from. […] The antigen-antibody-protein A complexes were washed extensively with the lysis buffer, the immunocomplexes were eluted by boiling for 3 minutes in a sample buffer containing 2% SDS and 10 mM dithiothreitol and subjected to SDS-PAGE, and then immunoblotted using a rat anti HIF-1α antibody developed previously (Chun et al., Biochem J 2002 362:71-79). β-actin protein was measured as an internal standard. VEGF in tumor tissue was detected using a mouse monoclonal anti-VEGF (SantaCruz Biotechnology Inc., Santa Cruz, Calif.) at a dilution of 1:1000, followed by incubation with a horseradish peroxidase-conjugated anti-mouse antiseruni (Zymed Laboratories Inc.).

Hep3B hepatoma tumors = assay: histology and immunohistochemistry (H&E, CD31, HIF-1α) of Hep3B xenograft tumors; settings: 30 μg/g daily i.p. 2 weeks
Experimental: FIG. 7 is a picture showing histopathology for Hep3B hepatoma tumors grown in nude mice. Male nude mice were injected subcutaneously in the flank with 5×10^6 viable Hep3B cells. […] After the last treatment, the mice were euthanized, the tumors removed, fixed with formalin, and embedded in paraffin. Tumor sections were cut from the paraffin blocks and stained with hernatoxylin and eosin. v, vessel; a, acinus. Scale bar=50 μm.
FIG. 8 is a picture showing vascular distribution in Hep3B hepatoma tumors grown in nude mice. Male nude mice were injected subcutaneously in the flank with 5×10^6 viable Hep3B cells. […] After the last treatment, the mice were euthanized, the tumors removed, fixed with formalin, and embedded in paraffin. Tumor sections were cut from the paraffin blocks and processed for immunohistochemical staining to detect endothelial cells with an anti-CD31 antibody. The immunostained sections were developed using the avidinbiotin-horseradish peroxidase method with diaminobenzidine as the chromagen. The sections were lightly counterstained with hematoxylin. Arrows indicate CD31-positive vessels. Scale bar=50 μm.
FIG. 9 is a picture showing expression and distribution of HIF-1α in Hep3B hepatoma tumors grown in nude mice. Male nude mice were injected subcutaneously in the flank with 5×10^6 viable Hep3B cells. […] After the last treatment, the mice were euthanized, the tumors removed, fixed with formalin, and embedded in paraffin. Tumor sections were cut from the paraffin blocks and processed for immunohistochemical staining to detect HIF-1α with an anti-HIF-1α antibody. The immunostained sections were developed using the avidin-biotin-horseradish peroxidase method with diaminobenzidine as the chromagen. The sections were lightly counterstained with hematoxylin. Arrows indicate HIF-1α positive cells. nu, nuclear staining; pn, perinuclear staining. Scale bar=50 μm. […]
Because HIF-1 is important in angiogenesis, we next assessed HIF-1α expression in tumor sections from vehicle- and YC-1-treated mice (FIG. 9).

[1] = test system: HIF-1-regulated genes (VEGF, aldolase A, enolase 1); assay: RT-PCR of HIF-1-regulated gene mRNA in Hep3B xenografts; settings: 30 μg/g daily i.p. 2 weeks
Experimental: Male nude mice were injected subcutaneously in the flank with 5×10^6 viable Hep3B cells. […] After the last treatment, the mice were euthanized, the tumors removed and lysates prepared for mRNA analysis. The mRNA levels of VEGF, aldolase A, enolase 1, and β-actin were measured by semi-quantitative RT-PCR. The quality of the extracted RNAs was verified by identifying the 18S ribosomal RNA (rRNA) on a 1% denaturing agarose gel.
The quality of the extracted RNAs was verified by identifying the 18S ribosomal RNA (rRNA) on a 1% denaturing agarose gel. VEGF, aldolase A and enolase 1 mRNA levels were also lower in YC-1-treated tumors than in vehicle-treated tumors one experiment. Results are expressed as the mean and 95% confidence intervals of 4 separate experiments.

## OCc1ccc(-c2nn(Cc3ccccc3)c3ccccc23)o1 [YC-1, 3-(5′-hydroxymethyl-2′-furyl)-1-benzylindazole]
HIF-1α and VEGF
  level of HIF-1α protein expression in tumors versus vehicle: markedly lower
  level of VEGF protein expression in tumors versus vehicle: markedly lower
Hep3B hepatoma tumors
  CD31-immunopositive vessels in tumor sections: Few CD31-immunopositive vessels
  HIF-1α immunoreactive cells in tumor sections: no HIF-1α inimunoreactive cells
  hematoxylin-eosin histology of tumor sections: frequent acinus formation without well-developed blood vessels
[1]
  VEGF, aldolase A and enolase 1 mRNA levels in tumors versus vehicle: lower
